Literature values, collected in US20110142834A1, “TREATMENT OF HEARING AND BALANCE IMPAIRMENTS USING COMPOUNDS HAVING ERYTHROPOIETIN ACTIVITY” (Edison Pharmaceuticals, Inc., priority 2008, published 2011).

patients displaying some vestibular impairment (2 grams daily for 60 to 120 days): ~75%
SMILES: [H]/N=C(/N)N[C@H]1[C@H](O)[C@@H](O)[C@H](O[C@@H]2O[C@@H](C)[C@](O)(C=O)[C@H]2O[C@@H]2O[C@@H](CO)[C@H](O)[C@@H](O)[C@@H]2NC)[C@@H](N/C(N)=N\[H])[C@@H]1O [streptomycin]
incidence of vestibular impairment (1 gram per day): 25%
